Laboratory results: patent US20250082674A1, “METHODS OF TREATING COPPER METABOLISM-ASSOCIATED DISEASES OR DISORDERS” (priority 2021, published 2025)
Where two headings read alike, the source gives them in different places.

Key:
^64Cu in blood = system: ^64Cu in blood
Experimental: 15 minutes after intravenous administration of ^64Cu, a dynamic PET-MR scan was performed, followed by additional scans at 1, 2, 6, 20, 48, 54, and 68 hours. Venous blood samples were collected for quantitation of radioactivity at multiple time points.

[1] = in vivo

## Bis-choline tetrathiomolybdate [BC-TTM]
^64Cu in blood; Post (after BC-TTM treatment), 5 sec
  Intravenously injected ^64Cu in the blood: 0.05
^64Cu in blood; Post (after BC-TTM treatment), 15 sec
  Intravenously injected ^64Cu in the blood: 1.02
^64Cu in blood; Post (after BC-TTM treatment), 60 sec
  Intravenously injected ^64Cu in the blood: 4.16
^64Cu in blood; Post (after BC-TTM treatment), 120 sec
  Intravenously injected ^64Cu in the blood: 3.47 (4.65)
^64Cu in blood; Post (after BC-TTM treatment), 200 sec
  Intravenously injected ^64Cu in the blood: 5.01
^64Cu in blood; Post (after BC-TTM treatment), 300 sec
  Intravenously injected ^64Cu in the blood: 6.99
^64Cu in blood; Post (after BC-TTM treatment), 600 sec
  Intravenously injected ^64Cu in the blood: 7.03
^64Cu in blood; Post (after BC-TTM treatment), 1 hour
  Intravenously injected ^64Cu in the blood: 5.43
^64Cu in blood; Post (after BC-TTM treatment), 2 hours
  Intravenously injected ^64Cu in the blood: 5.09
^64Cu in blood; Post (after BC-TTM treatment), 6 hours
  Intravenously injected ^64Cu in the blood: 2.54
^64Cu in blood; Post (after BC-TTM treatment), 20 hours
  Intravenously injected ^64Cu in the blood: 0.77 (0.41)
^64Cu in blood; Post (after BC-TTM treatment), 48 hours
  Intravenously injected ^64Cu in the blood: 0.51
^64Cu in blood; Post (after BC-TTM treatment), 54 hours
  Intravenously injected ^64Cu in the blood: 0.42
^64Cu in blood; Post (after BC-TTM treatment), 68 hours
  Intravenously injected ^64Cu in the blood: 0.42
^64Cu in blood; Pre (before BC-TTM treatment), 5 sec
  Intravenously injected ^64Cu in the blood: 0.00
^64Cu in blood; Pre (before BC-TTM treatment), 15 sec
  Intravenously injected ^64Cu in the blood: 0.00
^64Cu in blood; Pre (before BC-TTM treatment), 60 sec
  Intravenously injected ^64Cu in the blood: 5.30
^64Cu in blood; Pre (before BC-TTM treatment), 120 sec
  Intravenously injected ^64Cu in the blood: 5.15 (4.28)
^64Cu in blood; Pre (before BC-TTM treatment), 200 sec
  Intravenously injected ^64Cu in the blood: 5.13
^64Cu in blood; Pre (before BC-TTM treatment), 300 sec
  Intravenously injected ^64Cu in the blood: 5.88
^64Cu in blood; Pre (before BC-TTM treatment), 600 sec
  Intravenously injected ^64Cu in the blood: 4.35
^64Cu in blood; Pre (before BC-TTM treatment), 1 hour
  Intravenously injected ^64Cu in the blood: 0.78
^64Cu in blood; Pre (before BC-TTM treatment), 2 hours
  Intravenously injected ^64Cu in the blood: 0.64
^64Cu in blood; Pre (before BC-TTM treatment), 6 hours
  Intravenously injected ^64Cu in the blood: 0.42
^64Cu in blood; Pre (before BC-TTM treatment), 20 hours
  Intravenously injected ^64Cu in the blood: 0.32 (0.06)
^64Cu in blood; Pre (before BC-TTM treatment), 48 hours
  Intravenously injected ^64Cu in the blood: 0.33
^64Cu in blood; Pre (before BC-TTM treatment), 54 hours
  Intravenously injected ^64Cu in the blood: 0.28
^64Cu in blood; Pre (before BC-TTM treatment), 68 hours
  Intravenously injected ^64Cu in the blood: 0.25
^64Cu in blood; WD patients, FIG. 31
  64Cu peak in blood and clearance from blood after treatment: higher peak in the blood and its clearance from blood was delayed
^64Cu in blood; WD patients, from 1 hour to 48 hours after intravenous 64Cu
  64Cu in the blood after versus before treatment: significantly more
[1]
  AEs in SOC Investigations: 29.5%
  AEs in SOC Metabolism and nutrition disorders: 11.5%
  AEs in SOC Skin and subcutaneous tissue disorders: 13.1%
  Affective disorder, E events: 0
  Affective disorder, N participants: 0
  Alanine aminotransferase increased, E events: 14
  Alanine aminotransferase increased, N participants: 12
  Alanine aminotransferase increased, participants (%): 19.7%
  Anxiety, E events: 1
  Anxiety, N participants: 1
  Anxiety, participants (%): 1.6%
  Aspartate aminotransferase increased, E events: 4
  Aspartate aminotransferase increased, N participants: 4
  Aspartate aminotransferase increased, participants (%): 6.6%
  Attention deficit hyperactivity disorder, E events: 0
  Attention deficit hyperactivity disorder, N participants: 0
  Blood and lymphatic system disorders, E events: 18
  Blood and lymphatic system disorders, N participants: 7
  Blood and lymphatic system disorders, participants (%): 11.5%
  Cardiac disorders, E events: 5
  Cardiac disorders, N participants: 3
  Cardiac disorders, participants (%): 4.9%
  Congenital, familial, and genetic disorders, E events: 0
  Congenital, familial, and genetic disorders, N participants: 0
  Dyslipidemia, E events: 1
  Dyslipidemia, N participants: 1
  Dyslipidemia, participants (%): 1.6%
  Ear and labyrinth disorders, E events: 1
  Ear and labyrinth disorders, N participants: 1
  Ear and labyrinth disorders, participants (%): 1.6%
  Eczema, E events: 1
  Eczema, N participants: 1
  Eczema, participants (%): 1.6%
  Eye disorders, E events: 0
  Eye disorders, N participants: 0
  Fatigue, E events: 5
  Fatigue, N participants: 5
  Fatigue, participants (%): 8.2%
  Gamma-glutamyltransferase increased, E events: 3
  Gamma-glutamyltransferase increased, N participants: 3
  Gamma-glutamyltransferase increased, participants (%): 4.9%
  Gastrointestinal disorders, E events: 30
  Gastrointestinal disorders, N participants: 18
  Gastrointestinal disorders, participants (%): 29.5%
  Hand dermatitis, E events: 1
  Hand dermatitis, N participants: 1
  Hand dermatitis, participants (%): 1.6%
  Hepatic enzyme increased, E events: 3
  Hepatic enzyme increased, N participants: 3
  Hepatic enzyme increased, participants (%): 4.9%
  Hepatobiliary disorders, E events: 3
  Hepatobiliary disorders, N participants: 2
  Hepatobiliary disorders, participants (%): 3.3%
  Hyperlipidaemia, E events: 1
  Hyperlipidaemia, N participants: 1
  Hyperlipidaemia, participants (%): 1.6%
  Hypertriglyceridaemia, E events: 3
  Hypertriglyceridaemia, N participants: 1
  Hypertriglyceridaemia, participants (%): 1.6%
  Infections and infestations, E events: 23
  Infections and infestations, N participants: 17
  Infections and infestations, participants (%): 27.9%
  Injury, poisoning and procedural complications, E events: 13
  Injury, poisoning and procedural complications, N participants: 7
  Injury, poisoning and procedural complications, participants (%): 11.5%
  Investigations, E events: 29
  Investigations, N participants: 18
  Investigations, participants (%): 29.5%
  Metabolism and nutrition disorders, E events: 10
  Metabolism and nutrition disorders, N participants: 7
  Metabolism and nutrition disorders, participants (%): 11.5%
  Neoplasms benign, malignant, and unspecified (incl cysts and polyps), E events: 1
  Neoplasms benign, malignant, and unspecified (incl cysts and polyps), N participants: 1
  Neoplasms benign, malignant, and unspecified (incl cysts and polyps), participants (%): 1.6%
  Nervous system disorders, E events: 12
  Nervous system disorders, N participants: 11
  Nervous system disorders, participants (%): 18.0%
  Neutrophil count decreased, E events: 1
  Neutrophil count decreased, N participants: 1
  Neutrophil count decreased, participants (%): 1.6%
  Post-traumatic stress disorder, E events: 1
  Post-traumatic stress disorder, N participants: 1
  Post-traumatic stress disorder, participants (%): 1.6%
  Product issues, E events: 0
  Product issues, N participants: 0
  Pruritus, E events: 2
  Pruritus, N participants: 2
  Pruritus, participants (%): 3.3%
  Psychiatric disorders, E events: 3
  Psychiatric disorders, N participants: 3
  Psychiatric disorders, participants (%): 4.9%
  Pyrexia, E events: 1
  Pyrexia, N participants: 1
  Pyrexia, participants (%): 1.6%
  Rash pruritic, E events: 1
  Rash pruritic, N participants: 1
  Rash pruritic, participants (%): 1.6%
  Rash, E events: 5
  Rash, N participants: 1
  Rash, participants (%): 1.6%
  Renal and urinary disorders, E events: 2
  Renal and urinary disorders, N participants: 1
  Renal and urinary disorders, participants (%): 1.6%
  Reproductive system and breast disorders, E events: 0
  Reproductive system and breast disorders, N participants: 0
  Respiratory, thoracic, and mediastinal disorders, E events: 4
  Respiratory, thoracic, and mediastinal disorders, N participants: 3
  Respiratory, thoracic, and mediastinal disorders, participants (%): 4.9%
  Restlessness, E events: 0
  Restlessness, N participants: 0
  Skin and subcutaneous tissue disorders, E events: 15
  Skin and subcutaneous tissue disorders, N participants: 8
  Skin and subcutaneous tissue disorders, participants (%): 13.1%
  Sleep disorder, E events: 1
  Sleep disorder, N participants: 1
  Sleep disorder, participants (%): 1.6%
  Vascular disorders, E events: 5
  Vascular disorders, N participants: 3
  Vascular disorders, participants (%): 4.9%
  imbalances in neurologic and psychiatric events after switch from SoC to BC-TTM: not observed
